Consider one molecule from ChEMBL document CHEMBL3769377, “A synthesis, in silico, in vitro and in vivo study of thieno[2,3-b]pyridine anticancer analogues” (Medchemcomm, 2015).

Usually IC50 stands for the midpoint of a concentration-inhibition curve.

In assay [1] the target is Cyclin-dependent kinase 7 (Homo sapiens) (UniProt P50613). Kind of assay: Inhibition of human recombinant CDK7 assessed as residual activity at 10 uM after 1 hr by qPCR analysis relative to control.
For assay [2], the target named is Inhibitor of nuclear factor kappa-B kinase subunit beta (Homo sapiens) (UniProt O14920). Kind of assay: Inhibition of human recombinant IKKbeta assessed as residual activity at 10 uM after 1 hr by qPCR analysis relative to control. A general note: Quantitative PCR measures a nucleic acid by following its amplification.
Inhibitor of nuclear factor kappa-B kinase subunit beta (Homo sapiens), sequence (O14920 whole entry): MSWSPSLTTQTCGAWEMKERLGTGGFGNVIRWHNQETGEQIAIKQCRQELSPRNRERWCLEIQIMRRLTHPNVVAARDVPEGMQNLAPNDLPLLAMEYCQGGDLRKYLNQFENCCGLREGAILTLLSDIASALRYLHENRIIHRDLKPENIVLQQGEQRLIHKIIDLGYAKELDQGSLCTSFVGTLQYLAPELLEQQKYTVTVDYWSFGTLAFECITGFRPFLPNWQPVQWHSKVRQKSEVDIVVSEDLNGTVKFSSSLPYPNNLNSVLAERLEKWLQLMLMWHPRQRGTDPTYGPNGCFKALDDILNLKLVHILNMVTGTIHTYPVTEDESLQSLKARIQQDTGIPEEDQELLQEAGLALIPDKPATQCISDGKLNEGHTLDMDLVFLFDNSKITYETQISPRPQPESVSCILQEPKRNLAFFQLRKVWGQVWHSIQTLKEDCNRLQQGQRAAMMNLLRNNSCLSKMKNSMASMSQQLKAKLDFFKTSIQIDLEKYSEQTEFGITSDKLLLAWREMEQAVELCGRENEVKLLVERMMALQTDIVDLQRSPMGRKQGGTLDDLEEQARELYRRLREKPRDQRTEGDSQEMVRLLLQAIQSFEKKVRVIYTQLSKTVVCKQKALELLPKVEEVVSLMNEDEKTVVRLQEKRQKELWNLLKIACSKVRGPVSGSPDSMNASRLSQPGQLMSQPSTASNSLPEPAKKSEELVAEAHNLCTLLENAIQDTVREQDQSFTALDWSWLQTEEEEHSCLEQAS
Assay [3] concerns the target Serine/threonine-protein kinase STK11 (Homo sapiens) (UniProt Q15831). Kind of assay: Inhibition of human recombinant LKB1 assessed as residual activity at 10 uM after 1 hr by qPCR analysis relative to control.
Assay [4] concerns the target Serine/threonine-protein kinase PAK 2 (Homo sapiens) (UniProt Q13177). Nature of the assay: Inhibition of human recombinant PAK2 assessed as residual activity at 10 uM after 1 hr by qPCR analysis relative to control.
The target of assay [5] is 3-phosphoinositide-dependent protein kinase 1 (Homo sapiens) (UniProt O15530). Nature of the assay: Inhibition of human recombinant PDPK1 assessed as residual activity at 10 uM after 1 hr by qPCR analysis relative to control.
3-phosphoinositide-dependent protein kinase 1 (Homo sapiens), sequence (O15530 whole entry): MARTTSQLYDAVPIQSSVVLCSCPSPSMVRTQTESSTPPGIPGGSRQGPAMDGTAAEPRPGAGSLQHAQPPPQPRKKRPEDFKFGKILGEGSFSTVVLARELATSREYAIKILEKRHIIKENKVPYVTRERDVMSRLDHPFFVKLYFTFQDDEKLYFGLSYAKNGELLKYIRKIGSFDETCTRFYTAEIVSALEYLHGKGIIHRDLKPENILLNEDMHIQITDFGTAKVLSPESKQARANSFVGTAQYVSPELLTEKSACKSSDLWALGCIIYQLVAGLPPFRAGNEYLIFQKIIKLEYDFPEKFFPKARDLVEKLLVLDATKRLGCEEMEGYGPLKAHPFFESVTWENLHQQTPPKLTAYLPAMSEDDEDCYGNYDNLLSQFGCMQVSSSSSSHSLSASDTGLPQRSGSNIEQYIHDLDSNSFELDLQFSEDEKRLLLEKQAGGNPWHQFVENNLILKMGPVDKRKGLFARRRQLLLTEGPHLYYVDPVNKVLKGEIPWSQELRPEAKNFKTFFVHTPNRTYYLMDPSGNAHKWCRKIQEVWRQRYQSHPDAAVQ
Assay [6] addresses Serine/threonine-protein kinase pim-1 (Homo sapiens) (UniProt P11309). Kind of assay: Inhibition of human recombinant PIM1 assessed as residual activity at 10 uM after 1 hr by qPCR analysis relative to control.
Assay [7] addresses SRSF protein kinase 3 (Homo sapiens) (UniProt Q9UPE1). Nature of the assay: Inhibition of human recombinant SRPK3 assessed as residual activity at 10 uM after 1 hr by qPCR analysis relative to control.
The target of assay [8] is Serine/threonine-protein kinase 32C (Homo sapiens) (UniProt Q86UX6). Nature of the assay: Inhibition of human recombinant YANK3 assessed as residual activity at 10 uM after 1 hr by qPCR analysis relative to control.
Serine/threonine-protein kinase 32C (Homo sapiens), sequence (Q86UX6 whole entry): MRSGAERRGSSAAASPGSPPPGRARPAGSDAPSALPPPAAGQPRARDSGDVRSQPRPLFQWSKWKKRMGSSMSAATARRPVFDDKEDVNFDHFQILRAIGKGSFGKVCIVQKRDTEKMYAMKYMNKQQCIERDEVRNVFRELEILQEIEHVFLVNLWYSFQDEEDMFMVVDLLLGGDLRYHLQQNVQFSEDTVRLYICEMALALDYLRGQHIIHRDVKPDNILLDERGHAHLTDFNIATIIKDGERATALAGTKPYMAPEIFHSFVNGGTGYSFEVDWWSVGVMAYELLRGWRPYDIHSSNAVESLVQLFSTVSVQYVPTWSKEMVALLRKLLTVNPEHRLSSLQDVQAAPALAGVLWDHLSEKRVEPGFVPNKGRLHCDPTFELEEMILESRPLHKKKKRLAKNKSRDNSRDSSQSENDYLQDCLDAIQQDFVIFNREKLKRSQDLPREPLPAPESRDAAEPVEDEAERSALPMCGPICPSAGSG
For the next assay, the system named is 786-0. Nature of the assay: Antitumor activity against human 786-0 cells xenografted in athymic nude/beige mouse assessed as tumor growth inhibition at 0.16 mg/kg, ip qd after 24 days. It counts as functional, organism-based. Background: A xenograft is tissue or cells of one species grown in another, often human tumour cells in immunodeficient mice.
In assay [9] the target is Tyrosyl-DNA phosphodiesterase 1 (Homo sapiens, UniProt Q9NUW8). Kind of assay: Inhibition of recombinant human N-terminal His-tagged TDP1 (1824 bp) expressed in Escherichia coli BL21(DE3) cells using 5'-(5,6 FAM-AAC GTC AGG GTC TTC C-BHQ1)-3' as substrate measured every 1 min by RT-PCR method.
The target of assay [10] is Tyrosine-protein kinase ABL1 (Homo sapiens) (UniProt P00519). Nature of the assay: Inhibition of human recombinant non-phosphorylated ABL1 assessed as residual activity at 10 uM after 1 hr by qPCR analysis relative to control.
Tyrosine-protein kinase ABL1 (Homo sapiens), sequence (P00519 whole entry): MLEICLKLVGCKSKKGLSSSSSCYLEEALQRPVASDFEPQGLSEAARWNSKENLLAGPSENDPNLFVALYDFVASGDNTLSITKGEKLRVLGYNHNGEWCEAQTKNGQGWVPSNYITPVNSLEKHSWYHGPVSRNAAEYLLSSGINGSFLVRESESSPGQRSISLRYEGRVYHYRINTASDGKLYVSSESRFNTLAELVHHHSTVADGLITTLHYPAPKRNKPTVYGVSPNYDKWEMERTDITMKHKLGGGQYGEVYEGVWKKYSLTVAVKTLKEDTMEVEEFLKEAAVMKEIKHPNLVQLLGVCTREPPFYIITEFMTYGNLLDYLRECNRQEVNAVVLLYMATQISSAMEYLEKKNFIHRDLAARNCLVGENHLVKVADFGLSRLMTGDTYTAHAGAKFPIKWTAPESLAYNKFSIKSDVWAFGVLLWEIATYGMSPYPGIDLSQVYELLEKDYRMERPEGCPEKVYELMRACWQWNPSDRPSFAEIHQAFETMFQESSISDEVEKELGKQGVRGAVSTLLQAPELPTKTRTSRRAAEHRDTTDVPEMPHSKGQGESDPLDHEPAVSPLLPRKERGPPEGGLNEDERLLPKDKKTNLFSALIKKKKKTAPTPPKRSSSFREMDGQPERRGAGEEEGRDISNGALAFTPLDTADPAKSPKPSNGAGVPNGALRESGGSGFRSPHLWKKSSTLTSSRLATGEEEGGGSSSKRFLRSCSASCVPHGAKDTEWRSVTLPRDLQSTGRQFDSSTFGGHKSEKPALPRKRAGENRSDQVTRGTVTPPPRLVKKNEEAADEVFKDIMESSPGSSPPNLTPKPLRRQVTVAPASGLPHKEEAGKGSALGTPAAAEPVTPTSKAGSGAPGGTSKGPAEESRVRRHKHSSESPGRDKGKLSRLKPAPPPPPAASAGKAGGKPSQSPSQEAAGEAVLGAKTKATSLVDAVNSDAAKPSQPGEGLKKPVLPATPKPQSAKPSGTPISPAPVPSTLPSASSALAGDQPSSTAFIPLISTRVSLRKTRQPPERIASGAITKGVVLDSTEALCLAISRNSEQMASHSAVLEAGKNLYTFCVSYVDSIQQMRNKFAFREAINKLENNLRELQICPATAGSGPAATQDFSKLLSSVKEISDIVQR

Activity calls are given as the source filed them. The calls are words filed in the database; no cut-off is given here.

Serine/threonine-protein kinase PAK 2 (Homo sapiens), sequence (Q13177 whole entry): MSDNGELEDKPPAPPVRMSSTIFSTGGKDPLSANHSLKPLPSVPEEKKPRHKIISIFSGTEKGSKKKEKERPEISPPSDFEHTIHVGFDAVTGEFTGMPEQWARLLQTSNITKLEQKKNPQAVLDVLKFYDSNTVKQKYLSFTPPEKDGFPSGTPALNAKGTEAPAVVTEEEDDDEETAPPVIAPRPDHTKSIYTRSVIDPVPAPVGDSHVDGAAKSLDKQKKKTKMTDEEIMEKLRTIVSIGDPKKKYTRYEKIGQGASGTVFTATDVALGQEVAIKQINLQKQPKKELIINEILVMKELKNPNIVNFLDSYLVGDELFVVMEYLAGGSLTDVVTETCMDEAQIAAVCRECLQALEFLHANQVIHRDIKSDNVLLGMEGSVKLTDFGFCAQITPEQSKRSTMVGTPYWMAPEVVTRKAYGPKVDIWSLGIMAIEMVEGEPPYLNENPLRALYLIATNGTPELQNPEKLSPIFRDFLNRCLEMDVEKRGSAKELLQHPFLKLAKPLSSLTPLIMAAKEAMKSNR
SRSF protein kinase 3 (Homo sapiens), sequence (Q9UPE1 whole entry): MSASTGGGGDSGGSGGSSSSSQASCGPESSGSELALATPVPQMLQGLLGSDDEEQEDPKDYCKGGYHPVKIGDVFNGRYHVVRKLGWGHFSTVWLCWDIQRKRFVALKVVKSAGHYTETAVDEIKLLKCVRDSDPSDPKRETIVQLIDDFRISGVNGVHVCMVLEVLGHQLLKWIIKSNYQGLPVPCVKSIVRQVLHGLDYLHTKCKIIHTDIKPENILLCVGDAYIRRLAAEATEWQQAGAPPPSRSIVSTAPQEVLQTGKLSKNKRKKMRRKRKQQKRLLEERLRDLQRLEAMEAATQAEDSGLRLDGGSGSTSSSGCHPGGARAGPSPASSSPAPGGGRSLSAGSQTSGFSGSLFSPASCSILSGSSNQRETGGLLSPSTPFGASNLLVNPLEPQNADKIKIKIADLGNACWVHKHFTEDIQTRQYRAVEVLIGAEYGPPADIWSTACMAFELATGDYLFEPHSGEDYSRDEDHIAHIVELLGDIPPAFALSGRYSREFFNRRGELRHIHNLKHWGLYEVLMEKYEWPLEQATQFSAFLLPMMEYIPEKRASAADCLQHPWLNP
Serine/threonine-protein kinase pim-1 (Homo sapiens), sequence (P11309 whole entry, looked up): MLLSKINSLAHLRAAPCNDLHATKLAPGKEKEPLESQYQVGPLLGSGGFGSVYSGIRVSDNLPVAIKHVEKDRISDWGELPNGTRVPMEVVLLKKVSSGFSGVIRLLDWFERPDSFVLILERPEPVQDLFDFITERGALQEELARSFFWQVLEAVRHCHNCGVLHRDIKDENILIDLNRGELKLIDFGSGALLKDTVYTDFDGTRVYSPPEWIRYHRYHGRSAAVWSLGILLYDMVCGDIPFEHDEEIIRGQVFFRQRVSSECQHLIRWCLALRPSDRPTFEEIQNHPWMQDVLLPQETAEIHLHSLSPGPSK
Cyclin-dependent kinase 7 (Homo sapiens), sequence (P50613 whole entry): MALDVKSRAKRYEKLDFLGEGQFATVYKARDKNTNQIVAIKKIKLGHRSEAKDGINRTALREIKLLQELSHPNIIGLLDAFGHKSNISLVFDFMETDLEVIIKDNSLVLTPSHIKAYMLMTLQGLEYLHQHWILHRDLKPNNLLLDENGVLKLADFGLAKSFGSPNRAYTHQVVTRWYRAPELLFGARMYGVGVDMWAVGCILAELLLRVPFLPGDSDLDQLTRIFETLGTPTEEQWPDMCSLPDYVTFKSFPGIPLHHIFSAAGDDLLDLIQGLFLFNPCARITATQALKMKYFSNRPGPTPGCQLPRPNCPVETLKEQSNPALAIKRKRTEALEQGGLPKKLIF

For `Cc1c(Cl)cccc1NC(=O)c1sc2nc3c(cc2c1N)C(=O)CC3`, the Activity is 99% in assay [1]; 100% in assay [2]; 76% in assay [3]; 95% in [4]; 100% in assay [5]; 73% in assay [6]. For the same molecule, the Activity in assay [7] is 100%; in assay [8], 62%; in [10] it was 98%. Also, the TGI entry with 786-0 was “Active”. Besides, the IC50 in [9] was found to be 2200 nM.
